Measured values published in US12516086B2 (SRI International, priority 2021, dated 2026).
Ends that are not written are not given here.

How the values were obtained:
[1] = system: brain cells; test: Brain cell association after intrathecal injection, flow cytometry; assay type: in vivo, C57BL/6 mouse; conditions: Alexa Fluor 647 label, 1 hr circulation, compared to naïve animals
From the text: (A) Gating strategy for total brain cells vs debris. (B) Gating strategy excluding cell doublets. FIG. 24C indicates the fluorescent intensity of MGS_NOE3-V2-4 internalized into brain cells following intrathecal injection compared to naïve animals.
MGS_NOE3-V2-4 was labeled with Alexa Fluor 647 and injected intrathecally in a C57BL/6 mouse. After the peptide circulated for 1 hr, the animal was euthanized, and the brain tissue was harvested. The whole brain was subsequently dissociated using the Miltenyi Biotec gentleMACS Octo Dissociator. The number of MGS_NOE3_V2-4 molecules internalized into brain cells were analyzed by flow cytometry (BD FACSCelesta).
Alternatively, all CNS cells were analyzed as a mixture by dissociating the brain using the Miltenyi Biotec gentleMACS Octo Dissociator. No enrichment for a CNS subpopulation was performed and cells were directly analyzed by flow cytometry. Gating was used to eliminate cell debris and cell doublets.

[2] = system: HT22 cells; test: Confocal live cell imaging of internalization into HT22 cells; conditions: 200 nM, 37° C., Alexa Fluor 647
Protocol: Cells were incubated with 200 nM, and the average uptake per cell was determined. […] Alexa Fluor 488 conjugated wheat germ agglutinin was used to label the cell membrane and Hoechst 33342 was used to stain the nucleus. Live cell imaging was performed, and representative images are shown.
AlexaFluor488 conjugated wheat germ agglutinin was used to label the cell membrane and Hoechst 33342 was used to stain the nucleus. Live cell imaging was performed, and representative images are shown.
The test cells were seeded in 35 mm confocal microscopy dish 24 hours prior to treatment. The test peptides labeled with Alexa Fluor 647 were incubated on cells in media for the indicated time at 37° C. After incubation, the cells were washed 3 times with PBS, 2 times with 0.1 M HCl-glycine pH 2.2 in 0.9% NaCl and 1 time with PBS. Alexa Fluor 488 conjugated wheat germ agglutinin was used to label the cell membrane and Hoechst 33342 was used to stain the nucleus. Microscopy was acquired on a Zeiss LSM 700 with a Pln Apo 63×/1.4 oil DIC III objective. Images were processed using Zen software.
For peptides that were biotinylated instead of direct labeling with Alexa Fluor 647, the peptide-SA-AF647 conjugate was prepared by mixing Alexa Fluor™ 647 conjugated streptavidin and biotinylated peptide with an equal molecular ratio in 100 μl PBS for 30 minutes at room temperature. […]

[3] = system: HT22 and GT1/7 neuronal cell lines vs CTX TNA2 astrocytes and HMC3 microglia; test: Uptake of MGS_NOE3 tetramers across cell lines by quantitative flow cytometry; assay type: cell-based, mouse, rat, human; conditions: 200 nM, 1 h
Protocol: (§1) It must be on the tetrameric core to function. […] The number of molecules of peptide internalized per cell was determined by a quantitative flow cytometry assay. […] MGS_NOE3_V1-4 and MGS_NOE3_V2-4 display a 5-6-fold specificity for neurons over astrocytes and 3-fold specificity compared to microglia. […] Incubations were performed for 1 h at 37° C. […] Uptake was determined by flow cytometry assay.
(§2) Peptide concentration and incubation time as well as cell line used is indicated in each figure. […] Cells were removed by trypsinization. Flow cytometry was performed on a BD FACSCelesta, and data were analyzed using FlowJo_v10.8. Cells were gated based on the forward and side scatter to include only viable cells and a minimum of 10,000 events were counted. For absolute peptide uptake per cell, a standard curve was generated using Quantum™ Alexa Fluor 647 microspheres. MFI was determined at 50% at peak height. Molecules internalized per cell were determined by the standard curve relating MESF to MFI and divided by the number dye molecules/MGS conjugate. GraphPad Prism® was used for non-linear regression curve fitting to calculate an EC50.

[4] = system: HT22 cells (mouse hippocampal neuronal cell line); test: Peptide uptake by quantitative flow cytometry in HT22 cells; assay type: cell-based; conditions: for Uptake into HT22 cells versus concentration (in words): 1 h at 37° C.
Protocol: FIG. 26A. […] FIG. 26B. […] FIG. 26C.
as §1, §2

[5] = target: Recombinant human transferrin receptor (Homo sapiens, UniProt P02786); test: ELISA binding to plate-absorbed transferrin receptor; conditions: receptor at 1 μg/mL, biotinylated peptide at varying concentrations, 1 h
Recombinant human transferrin receptor, sequence (P02786 whole entry): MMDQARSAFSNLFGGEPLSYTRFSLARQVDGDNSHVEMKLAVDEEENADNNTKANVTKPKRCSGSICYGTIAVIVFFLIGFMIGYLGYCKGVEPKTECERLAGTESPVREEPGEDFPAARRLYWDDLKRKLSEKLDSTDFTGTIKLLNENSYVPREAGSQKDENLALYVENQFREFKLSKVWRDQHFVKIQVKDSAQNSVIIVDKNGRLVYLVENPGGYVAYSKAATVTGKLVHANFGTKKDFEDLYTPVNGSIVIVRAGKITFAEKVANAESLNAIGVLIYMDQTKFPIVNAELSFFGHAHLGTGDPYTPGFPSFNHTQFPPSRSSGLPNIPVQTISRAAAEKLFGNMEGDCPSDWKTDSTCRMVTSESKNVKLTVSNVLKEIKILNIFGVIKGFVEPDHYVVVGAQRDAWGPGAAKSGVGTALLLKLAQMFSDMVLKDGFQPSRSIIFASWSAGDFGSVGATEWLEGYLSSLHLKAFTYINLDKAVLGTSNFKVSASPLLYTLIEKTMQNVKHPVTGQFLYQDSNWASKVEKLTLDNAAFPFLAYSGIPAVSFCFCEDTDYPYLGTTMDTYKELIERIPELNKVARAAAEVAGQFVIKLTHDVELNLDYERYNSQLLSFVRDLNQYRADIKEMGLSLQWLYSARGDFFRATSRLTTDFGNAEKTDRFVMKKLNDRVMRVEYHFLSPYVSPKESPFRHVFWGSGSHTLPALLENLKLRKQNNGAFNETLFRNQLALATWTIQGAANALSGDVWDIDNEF
Protocol: Recombinant human transferrin receptor was absorbed onto high binding ELISA plates at 1 μg/mL. […] Retained MTS peptide was detected using streptavidin-HRP and TMB reagent. The absorbance was measured at 450 nm and is proportional to the amount of MTS peptide captured by transferrin receptor. […] By comparison, MTS3_V1-2 and a scrambled control peptide of MTS2_V1-2 show no binding. The binding affinity of MTS2_V1-2 for transferrin receptor was determined by biolayer interferometry on a OctetRED 96 system. The biotinylated MTS2_V1-2 peptide was captured on streptavidin probe. The kon and koff rate were determined at various concentrations of human or mouse transferrin receptor allowing for determination of the dissociation constant.

[6] = system: HMC3 cells (human microglia cell line); test: Peptide uptake by quantitative flow cytometry in HMC3 cells; assay type: cell-based
Protocol: Under both cell states, an average of ˜60,000 molecules of MGS2_V4-2 were internalized. […] All cell lines were incubated with MGS2_V4-2 at 25 nM for 1 hour at 37° C.
Cells were incubated at the indicated concentration of each peptide construct that had been labeled with Alexa Fluor 647. After 1 h incubation at 37° C., uptake was determined by quantitative flow cytometry. […] Thus, uptake is mediated by the MGS not the MTS.
However, binding was rescued by using the tetrameric MGS2_V4-4 as the targeting peptide in this multifunctional chimera (shown in panel A).
as §2
HMC3 cells were activated with interferon-gamma (IFN-γ) (10 ng/ml, 24 h). Resting phenotype was characterized by expression of IBA1, and endotoxin receptor CD14, but negative for the astrocyte marker GFAP. […] In Vivo MTS and MTS-MGS Targeting Experiments

[7] = system: HT-22 cells; test: Receptor recycling: MGS_NOE3_V2-4 uptake with chloroquine or cycloheximide; assay type: cell-based, mouse; conditions: 100 nM MGS_NOE3_V2-4; 100 μM chloroquine or 250 μM cycloheximide; up to 24 h
Protocol: The cellular receptor for MGS_NOE3_V2-4 is recycled (FIG. 22). HT-22 cells were incubated with culture medium containing 100 nM MGS_NOE3_V2-4 in the presence of 100 μM chloroquine or 250 μM cycloheximide for the indicated times. The cellular uptake was analyzed by flow cytometry. […] New protein synthesis is not required for continued uptake of MGS_NOE3_V2-4. Endosomal acidification is required for continued uptake of MGS_NOE3_V2-4. MGS_NOE3_V2-4 uptake continues with time.
For experiments to determine if the cellular receptor is recycled, cells were treated with peptide in the presence of 100 μM chloroquine or 250 μM cycloheximide. At the indicated time points, the cells were washed and analyzed as described above.

[8] = Serum stability (RP-HPLC of Alexa Fluor 647 labeled peptide); assay type: in vitro ADME; conditions: 37° C., 24 h
Protocol: MGS2_V4-2 labeled with Alex Fluor 647 was incubated in human serum at 37° C. At the indicated times, an aliquot was removed, serum proteins were precipitated, and the resultant supernatant was analyzed by reverse phase HPLC monitoring the absorbance at 650 nm. Chromatograms for each time point are shown. Intact peptide has a retention time at 11.864. […] Peaks were integrated to determine the percentage of intact peptide as well as the amount of observed degradation product. At 24 h, >75% of the MGS2_V4-2 is still intact. Electrospray mass spectrometry was performed on the peptide product arising at the 10.005 min retention time. The mass of this new species corresponds to the loss of the 3 amino acids on both branches of MGS2_V4-2.
The concentration of a solution of peptide conjugated with dye (Alexa Fluor 647) was determine by absorbance at 651 nm and ˜14 nmol of peptide was lyophilized. The lyophilized peptide powder was dissolved in 400 μL of human serum (Innovative Research, H6430) to achieve a 35 μM solution. The sample was incubated at 37° C. and shaken. For each time point (0, 1, 2, 4, 20 and 24 hours), a 50 μL aliquot was removed from the reaction and 100 μL of absolute ethanol was added to precipitate serum proteins. Samples were incubated on ice for 15 mins before being centrifuged at 12,000 rpm for 5 mins. […] Finally, 100 μL of each sample were analyzed by analysis RP-HPLC.

[9] = human serum (Innovative Research, H6430); conditions: 37° C., up to 24 hours
[10] = rat, in vivo
Protocol: MTS variants labeled with the near infrared dye Alexa Fluor 750 were injected into the tail vein of Sprague Dawley rats at 1 μg MTS/kg rat body weight. At the indicated time, CSF was isolated via capillary puncture of the cisterna magna. […] To assure the fatty acid is not driving the transport into the CNS, a control peptide scMTS3_V2-2 which contains the MTS3 amino acid composition but with a scrambled sequence was lipidated.
The MTS peptide directly conjugated to Alexa Fluor 750 dye (1 μg/g body weight) is injected via lateral tail vein into a Sprague-Dawley Rat and allowed to circulate for the indicated time (20 min, 1 h 6 h, 24 h). The animal is anesthetized 10 mins prior to the end of the time point and 2 mL 200× Heparinized Saline is injected intraperitoneally. To collect the CSF, a blunt dissection of the back of the neck is performed to expose the clear dura mater covering the cisterna magna. Using a glass micropipette, CSF is aspirated from the cisterna magna at the indicated time point. Following CSF collection, a transcardial perfusion is performed by flushing with 500 mL ice cold 1× PBS containing heparin to remove any blood from the body. The brain and other tissues are isolated. The brain is homogenized using a Dounce homogenizer in lysis buffer (30 mM Tris-HCl, pH 8.0 0.05% Triton X-100) and the soluble fraction collected. […]

[11] = rat, in vivo; remark: listed apart in the source
Protocol: Coronal slices are 1 mm and arranged from the front (upper left) to back (lower right).
Coronal slices of 1 mm thickness are prepared using a brain matrix. The slices are imaged on an Odyssey Imager collecting fluorescent signal at 800 nm.

**Q.** With “MGS_NOE3_V2-4: tetrameric version of Ac-GFHNVYPYTWGGFSDIDLMADEI (SEQ ID NO:5) (also: tetrameric construct)” as the compound, how does the “Association with brain cells after intrathecal injection” value [1] read?
**A.** associated with cells in the CNS after intrathecal injection

**Q.** And the “Internalization into HT22 cells by confocal live cell imaging” value [2]?
**A.** internalized into neuronal cells

**Q.** And the “Specificity for neurons compared to microglia” value [3]?
**A.** 3 fold

**Q.** And the “Uptake into HT22 cells over time (in words)” value ([4]; 200 nM, 37° C.)?
**A.** increases over time

**Q.** And the “Uptake into HT22 cells versus concentration (in words)” value [4]?
**A.** increases with increasing concentration

**Q.** And the Intracellular concentration reached ([4]; uptake to at least 24 H)?
**A.** ≈ 1 μM

**Q.** For “MTS3_V1-2 (Ac-SKETYSMNAQRQHERS; also: dimer)”, which “Binding to transferrin receptor in ELISA (absorbance at 450 nm)” value [5] is on record?
**A.** no binding

**Q.** And the “Cellular uptake in HMC3 cells (in words)” value ([6]; 1 h at 37° C., quantitative flow cytometry)?
**A.** no significant cellular uptake at any of the concentrations tested

**Q.** For C[C@@H]1C[C@@H]([C@H](O)CC2CC(=O)NC(=O)C2)C(=O)[C@@H](C)C1 [Cycloheximide], which “Effect on MGS_NOE3_V2-4 uptake” value [7] is on record?
**A.** no impact on MGS_NOE3_V2-4 uptake

**Q.** For “MGS_NOE3_V2-2 (Ac-GFHNVYPYTWGGFSDIDLMADEI; also: dimer)”, which “Uptake into HT22 cells versus concentration (in words)” value [4] is on record?
**A.** no uptake was observed on HT22 cells

**Q.** For “dimeric form of MGS2_V4, Ac-YAAWPASGAWT (SEQ ID NO:8) [MGS2_V4-2]”, which “Intact peptide in human serum” value [8] is on record?
**A.** > 75%

**Q.** What about the “Uptake in HMC3 cells versus other CNS cell lines (specificity)” value ([6]; 25 nM, 1 hour at 37° C., versus neuronal cells, Schwann cell, astrocytes) of the same compound?
**A.** significantly higher in HMC3 cells than other cells of the central nervous system

**Q.** What about the “Molecules internalized (average)” value ([6]; HMC3 cells of resting or activated phenotype, 1 hour) of the same compound?
**A.** ~60,000 molecules

**Q.** And the EC50 ([6]; HMC3 cells, 1 h at 37° C., read-out: EC50 (half maximal uptake))?
**A.** 7.3 nM

**Q.** Which “Effect on MGS_NOE3_V2-4 uptake” value [7] does the source give for CCN(CC)CCCC(C)Nc1ccnc2cc(Cl)ccc12 (stereo not shown) [chloroquine] here?
**A.** greatly reduces uptake

**Q.** For Ac-YAAWPASGAWT, which fragment found [9] is on record?
**A.** loss of the 3 amino acids on both branches of MGS2_V4-2, 1 h

**Q.** Which “Specificity for neurons compared to microglia” value [3] does the source give for “MGS_NOE3_V1-4: tetrameric version of GFHNVYPYTWGGFSDIDLMADEI (SEQ ID NO:1) (also: tetrameric construct on a core linker)” here?
**A.** 3 fold

**Q.** What does the source list for “MTS3_V2-2 (Ac-SKETYSMNAQRQHERS; also: dimer, C16 fatty acid)”?
**A.** Transport into the brain parenchyma, fold higher than nonmodified MTS3_V1-2 [10]: 10-12 fold; Transport into the brain parenchyma, fold higher than scrambled control scMTS3_V2-2 [10]: 17-31 fold; Brain uptake by fluorescent imaging of 1 mm coronal slices [11]: increased brain uptake compared to MTS3_V1-2 at all time points

**Q.** Which “Uptake into HT22 cells versus concentration (in words)” value [4] does the source give for “Ac-GFHNVYPYTWGGFSDIDLMADEI [MGS_NOE3_V2]” here?
**A.** no uptake was observed on HT22 cells

**Q.** For “dimer version of MTS2_V1, Ac-FPSWTSKNQQWTNQRQ (also: dimer) [MTS2_V1-2]”, which “Binding to transferrin receptor in ELISA (absorbance at 450 nm)” value [5] is on record?
**A.** binds to human transferrin in a concentration dependent manner which saturates at higher concentrations
